Laboratory results as given in patent US20260265279A1, “RHO-ASSOCIATED PROTEIN KINASE INHIBITOR AND PREPARATION AND USE THEREOF” (Shanghai Zhimeng Biopharma, Inc, priority 2022, published 2026).

Legend:
ROCK2 = biological target: T1, ROCK2 (Homo sapiens, UniProt O75116); assay: Kinase IC50 assay, HTRF kinEASE STK S2 kit, ROCK2; type: biochemical; details: ATP 1 μM, 2.5 ng/well enzyme, 120 min
T1 construct: purchased Invitrogen PV3759
Description: (§1) Kinase IC50 assay was performed using the kinase assay kit HTRF kinEASE STK S2 kit (Cat #62ST2PEC, Cisbio). Kinases ROCK1 (Cat #PV3691) and ROCK2 (Cat #PV3759) were purchased from Invitrogen.
(§2) The working solution required for the assay was prepared with the appropriate reagents as described in the kinase assay kit instructions:
(§3) 1 mL of 1× Kinase Buffer contains 200 μL 5× Enzyme buffer, 5 μL 1M MgCl2 (Cat.M8266, Sigma), 1 μL 1M DTT (Cat.D5545, Sigma), 794 μL ddH2O.
(§4) The specific concentrations of STK-biotin substrate and ATP are shown in Table A. STK-biotin substrate and ATP were diluted with 1× kinase buffer to 2.5 times of the reaction concentration.
(§5) Concentrations of ROCK1/ROCK2 are shown in Table A. 5×ROCK1/ROCK2 Kinase working solution was prepared with 1× Kinase Buffer.
(§6) See Table A for the concentrations of Streptavidin-XL665 and STK Antibody-Cryptate in the reaction. 2× Streptavidin-XL665 and STK Antibody-Cryptate Working Solutions were prepared 5 minutes prior to the end of the kinase reaction using Detection Buffer from the kit.
(§7) A 100 μM compound mother solution was prepared using 1× kinase buffer containing 2.5% DMSO, and the mother solution was diluted 4-fold stepwise with the above DMSO-containing kinase buffer to obtain nine different concentrations of the compound solutions to be tested. In addition to the test compound wells, positive control wells (containing all reagents except the compounds) and negative control wells (containing all reagents except the compounds and kinase) were set up. 4 μL of the test compound solution was added to all reaction wells except the control wells and 4 μL of 2.5% DMSO solution was added to the control wells. Then 4 μL of previously prepared substrate and ATP working solution were added to all wells and mix well. Then, 2 μL/well of 5×ROCK1/ROCK2 kinase working solution (containing 2.5 ng ROCK1/ROCK2 kinase) was added to all reaction wells except negative control wells, and the negative control wells were made up to volume with 2 μL of 1× kinase buffer. Mix well, seal with plastic film and incubate at room temperature for 2 hours. Start preparing the assay solution 5 minutes before the end of the kinase reaction. After the end of the kinase reaction, 10 μL of prepared Streptavidin-XL665 and STK Antibody-Cryptate working solution were added to all reaction wells, the plates were sealed and mixed well, and then incubated at room temperature for 1 hour. Finally, the fluorescence signal was detected by SpectraMax i3x Multi-Mode Reader (Molecular Devices) (excitation wavelength is 320 nm, emission wavelength is 665 nm and 615 nm).
(§8) The inhibition rate in each well was calculated from the fluorescence intensity values of each well:
(§9) ER Emission Ratio, Emission light ratio=fluorescence intensity at 665 nm/fluorescence intensity at 615 nm;
(§10) ERcompound, ER of test compound wells; ERvehicle, ER of solvent (positive) control wells, ERblank, ER of blank (negative) control wells.
(§11) The graphs were plotted using the software GraphPad Prism 6.0, while the half inhibitory concentration (IC50) of each compound to be tested was obtained by fitting with Prism 6.0.

ROCK1 = biological target: T2, ROCK1 (Homo sapiens, UniProt Q13464); assay: Kinase IC50 assay, HTRF kinEASE STK S2 kit, ROCK1; type: biochemical; details: ATP 1.5 μM, 2.5 ng/well enzyme, 120 min
T2 construct: purchased Invitrogen PV3691
Description: as §1, §2, §3, §4, §5, §6, §7, §8, §9, §10, §11

T1 sequence (O75116 5-554 limits assumed): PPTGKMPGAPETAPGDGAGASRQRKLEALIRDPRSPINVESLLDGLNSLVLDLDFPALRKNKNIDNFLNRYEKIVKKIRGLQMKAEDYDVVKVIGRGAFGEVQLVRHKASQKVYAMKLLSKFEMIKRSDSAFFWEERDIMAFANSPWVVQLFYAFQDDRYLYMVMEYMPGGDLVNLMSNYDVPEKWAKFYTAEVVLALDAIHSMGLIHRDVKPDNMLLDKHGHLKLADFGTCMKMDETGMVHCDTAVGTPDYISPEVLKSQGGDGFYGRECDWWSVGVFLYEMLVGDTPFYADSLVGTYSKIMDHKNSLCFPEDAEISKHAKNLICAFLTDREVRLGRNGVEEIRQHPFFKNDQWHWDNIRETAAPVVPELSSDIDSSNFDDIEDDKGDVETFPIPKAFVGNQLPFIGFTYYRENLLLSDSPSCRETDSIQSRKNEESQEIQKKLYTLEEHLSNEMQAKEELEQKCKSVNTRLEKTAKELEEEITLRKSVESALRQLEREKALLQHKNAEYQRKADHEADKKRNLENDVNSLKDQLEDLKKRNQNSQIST
T2 sequence (Q13464 1-535 limits assumed): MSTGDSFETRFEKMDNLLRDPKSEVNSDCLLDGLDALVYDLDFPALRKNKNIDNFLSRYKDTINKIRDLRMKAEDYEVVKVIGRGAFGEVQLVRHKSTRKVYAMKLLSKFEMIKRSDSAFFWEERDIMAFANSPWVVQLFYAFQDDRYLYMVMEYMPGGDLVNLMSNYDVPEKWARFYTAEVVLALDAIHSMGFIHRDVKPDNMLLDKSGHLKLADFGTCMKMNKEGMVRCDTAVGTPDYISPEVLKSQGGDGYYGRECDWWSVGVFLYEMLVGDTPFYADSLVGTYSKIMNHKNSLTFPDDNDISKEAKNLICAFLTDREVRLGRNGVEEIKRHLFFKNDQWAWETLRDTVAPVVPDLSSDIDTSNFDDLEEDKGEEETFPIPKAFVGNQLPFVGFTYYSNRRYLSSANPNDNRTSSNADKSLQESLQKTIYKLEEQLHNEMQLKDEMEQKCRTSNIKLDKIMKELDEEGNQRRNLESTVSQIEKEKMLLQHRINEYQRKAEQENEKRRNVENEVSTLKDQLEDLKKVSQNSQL

Row | SMILES | IC50 (ROCK2) [µM] | IC50 (ROCK1) [µM]
1 | Cn1c(C#Cc2nccc(Nc3ccc4[nH]ncc4c3)n2)ccc1C(=O)N1CC(F)(F)C1 [Compound A2] | 0.303 | 3.9
2 | Cc1cnc(C#Cc2ccc(C(=O)N3CC(F)(F)C3)n2C)nc1Nc1ccc(-c2cn[nH]c2)cc1 [Compound A4] | 0.186 | 80
3 | Cc1cc(Nc2ccc(-c3cn[nH]c3)cc2)nc(C#Cc2ccc(C(=O)N3CC(F)(F)C3)n2C)n1 [Compound A5] | 0.091 | > 100
4 | Cc1nc(C#Cc2ccc(C(=O)N3CC(F)(F)C3)n2C)nc(Nc2ccc(-c3cn[nH]c3)cc2)c1C [Compound A6] | 0.202 | 35.2
5 | Cn1c(C#Cc2ncc(F)c(Nc3ccc(-c4cn[nH]c4)cc3)n2)ccc1C(=O)N1CC(F)(F)C1 [Compound A7] | 0.0544 | > 100
6 | Cn1c(C#Cc2ncc(C#N)c(Nc3ccc(-c4cn[nH]c4)cc3)n2)ccc1C(=O)N1CC(F)(F)C1 [Compound A8] | 3.49 | > 100
7 | Cn1c(C#Cc2ncnc(Nc3ccc(-c4cn[nH]c4)cc3)n2)ccc1C(=O)N1CC(F)(F)C1 [Compound A9] | 0.702 | > 100
8 | Cn1c(C#Cc2nc3c(c(Nc4ccc(-c5cn[nH]c5)cc4)n2)COC3)ccc1C(=O)N1CC(F)(F)C1 [Compound A10] | 0.0778 | > 100
9 | CN1Cc2nc(C#Cc3ccc(C(=O)N4CC(F)(F)C4)n3C)nc(Nc3ccc(-c4cn[nH]c4)cc3)c2C1 [Compound A11] | 0.0867 | > 100
10 | Cc1cc(Nc2ccnc(C#Cc3ccc(C(=O)N4CC(F)(F)C4)n3C)n2)ccc1-c1cn[nH]c1 [Compound A12] | 0.199 | 32.3
11 | Cc1n[nH]c(C)c1-c1ccc(Nc2ccnc(C#Cc3ccc(C(=O)N4CC(F)(F)C4)n3C)n2)cc1 [Compound A14] | 0.585 | > 100
12 | Cn1c(C#Cc2ncc(F)c(Nc3ccc(-c4c[nH]nc4F)cc3)n2)ccc1C(=O)N1CC(F)(F)C1 [Compound A15] | 0.421 | > 100
13 | Cc1[nH]ncc1-c1ccc(Nc2nc(C#Cc3ccc(C(=O)N4CC(F)(F)C4)n3C)ncc2F)cc1 [Compound A16] | 0.0349 | 29.6
14 | Cn1nc(C#Cc2nccc(Nc3ccc(-c4cn[nH]c4)cc3)n2)cc1C(=O)N1CC(F)(F)C1 [Compound A17] | 1.06 | 50.3
15 | Cn1cc(C#Cc2nccc(Nc3ccc(-c4cn[nH]c4)cc3)n2)cc1C(=O)N1CC(F)(F)C1 [Compound A18] | 2.35 | 53.8
16 | O=C(c1ccc(C#Cc2nccc(Nc3ccc(-c4cn[nH]c4)cc3)n2)s1)N1CC(F)(F)C1 [Compound A19] | 50.5 | > 100
17 | O=C(c1cccc(C#Cc2nccc(Nc3ccc(-c4cn[nH]c4)cc3)n2)n1)N1CC(F)(F)C1 [Compound A20] | 0.206 | > 100
18 | O=C(c1ccc(C#Cc2nccc(Nc3ccc(-c4cn[nH]c4)cc3)n2)nc1)N1CC(F)(F)C1 [Compound A21] | 0.754 | > 100
19 | Cc1c(Nc2ccnc(C#Cc3ccc(C(=O)N4CC(F)(F)C4)n3C)n2)ccc2[nH]ncc12 [Compound A22] | 3.59 | 40.9
20 | Cn1c(C#Cc2ncc(F)c(Nc3ccc4c(=O)[nH]ccc4c3)n2)ccc1C(=O)N1CC(F)(F)C1 [Compound A27] | 0.274 | > 100
21 | O=C(c1ccc(C#Cc2nccc(Nc3ccc(-c4cn[nH]c4)cc3)n2)cc1)N1CC(F)(F)C1 [Compound A28] | 1.1 | > 100

Row | SMILES | IC50 (ROCK2) [µM] | IC50 (ROCK1) [µM]
22 | O=C(c1cccc(C#Cc2nccc(Nc3ccc(-c4cn[nH]c4)cc3)n2)c1)N1CC(F)(F)C1 [Compound A29] | 2 | 57.1
23 | O=C(c1ccc(C#Cc2nccc(Nc3ccc(-c4cn[nH]c4)cc3)n2)n1C1CC1)N1CC(F)(F)C1 [Compound A30] | 0.118 | 41.9
24 | CCn1c(C#Cc2nccc(Nc3ccc(-c4cn[nH]c4)cc3)n2)ccc1C(=O)N1CC(F)(F)C1 [Compound A32] | 0.232 | 30.7
25 | Cn1c(C#Cc2nc(Nc3ccc(-c4cn[nH]c4)cc3)c3ccccc3n2)ccc1C(=O)N1CC(F)(F)C1 [Compound A37] | 0.42 | > 100
26 | O=C1c2ccc(C#Cc3ncc(F)c(Nc4ccc(-c5cn[nH]c5)cc4)n3)n2CCN1CC(F)(F)F [Compound A38] | 0.445 | > 100
27 | Cc1cc(C(=O)N2CC(F)(F)C2)n(C)c1C#Cc1ncc(F)c(Nc2cc(F)c(-c3cn[nH]c3)c(F)c2)n1 [Compound A40] | 0.0172 | > 100
28 | Cc1cc(C(=O)N2CC(F)(F)C2)n(C)c1C#Cc1ncc(F)c(Nc2cnc(-c3cn[nH]c3)c(F)c2)n1 [Compound A41] | 0.0724 | > 100
29 | Cc1cc(C(=O)N2CC(F)(F)C2)n(C)c1C#Cc1ncc(F)c(Nc2ccc(-c3cn[nH]c3)c(F)c2)n1 [Compound A42] | 0.005 | 4.93
30 | Cc1cc(C(=O)N2CC(F)(F)C2)n(C)c1C#Cc1ncc(F)c(Nc2cc(F)c(-c3cn[nH]c3C)c(F)c2)n1 [Compound A43] | 0.0515 | 20.6
31 | Cc1cc(C(=O)N2CC(F)(F)C2)n(C)c1C#Cc1ncc(F)c(Nc2ccc(-c3cn[nH]c3C)cc2)n1 [Compound A44] | 0.0127 | > 100
32 | Cc1cc(C(=O)N2CC(F)(F)C2)n(C)c1C#Cc1nc(C)c(F)c(Nc2ccc(-c3cn[nH]c3)c(F)c2)n1 [Compound A45] | 0.0352 | 8.8
33 | O=C(c1cccc(C#Cc2ncc(F)c(Nc3cc(F)c(-c4cn[nH]c4)cc3F)n2)n1)N1CC(F)(F)C1 [Compound A46] | 0.161 | > 100
34 | Cc1cc(C(=O)N2CC(F)(F)C2)n(C)c1C#Cc1ncc(F)c(Nc2cc(F)c(-c3cn[nH]c3C)cc2F)n1 [Compound A47] | 0.476 | > 100
35 | Cc1cc(C(=O)N2CC(F)(F)C2)n(C)c1C#Cc1ncc(F)c(Nc2cnc(-c3cn[nH]c3C)cc2F)n1 [Compound A48] | 0.0377 | 18.4
36 | Cc1cc(C(=O)N2CC(F)(F)C2)n(C)c1C#Cc1ncc(F)c(Nc2cc(F)c(-c3cn[nH]c3)cc2F)n1 [Compound A49] | 0.0177 | 37.4
37 | Cc1cc(C(=O)N2CC(F)(F)C2)n(C)c1C#Cc1nc2c(c(Nc3cc(F)c(-c4cn[nH]c4)c(F)c3)n1)COC2 [Compound A50] | 0.0089 | 0.073
38 | Cc1cc(C(=O)N2CC(F)(F)C2)n(C)c1C#Cc1ncc(F)c(Nc2ccc(-c3cn[nH]c3C)cc2F)n1 [Compound A51] | 0.131 | > 100
39 | Cn1c(C(=O)N2CC(F)(F)C2)cc(C2CC2)c1C#Cc1ncc(F)c(Nc2cc(F)c(-c3cn[nH]c3)cc2F)n1 [Compound A54] | 0.0192 | 64
40 | CC(C)c1cc(C(=O)N2CC(F)(F)C2)n(C)c1C#Cc1ncc(F)c(Nc2cc(F)c(-c3cn[nH]c3)cc2F)n1 [Compound A55] | 0.0573 | > 100
41 | Cc1cc(C(=O)N2CC(O)C2)n(C)c1C#Cc1ncc(F)c(Nc2cc(F)c(-c3cn[nH]c3)cc2F)n1 [Compound A56] | 0.0193 | > 100
42 | COC1CN(C(=O)c2cc(C)c(C#Cc3ncc(F)c(Nc4cc(F)c(-c5cn[nH]c5)cc4F)n3)n2C)C1 [Compound A57] | 0.0324 | > 100
